Results reported in PubChem BioAssay (NCI).
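Grown in 96-well plates, cells were treated for 48 hours with each compound at five concentrations. Insufficient inhibition: endpoint recorded as highest concentration tested. GI50: concentration for 50% inhibition of growth. TGI denotes the concentration required for complete inhibition of growth.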

Columns and labels:
Assay in all cases: NCI anticancer screen, dose series, 48 h; in the data active = GI50 below about 0.43 µM; inactive = the rest
MCF7 breast = tested on: MCF7 breast
T-47D breast = tested on: T-47D breast
SK-MEL-2 melanoma = tested on: SK-MEL-2 melanoma
SK-MEL-5 melanoma = tested on: SK-MEL-5 melanoma
IGROV1 ovarian = tested on: IGROV1 ovarian
SK-MEL-28 melanoma = tested on: SK-MEL-28 melanoma
NCI-H23 lung = tested on: NCI-H23 lung
NCI-H522 lung = tested on: NCI-H522 lung
MOLT-4 leukemia = tested on: MOLT-4 leukemia
CCRF-CEM leukemia = tested on: CCRF-CEM leukemia
A549 NSCLC = tested on: A549 NSCLC
MALME-3M melanoma = tested on: MALME-3M melanoma
DU-145 prostate = tested on: DU-145 prostate
A498 renal = tested on: A498 renal
RPMI-8226 leukemia = tested on: RPMI-8226 leukemia
SF-268 CNS = tested on: SF-268 CNS
M14 melanoma = tested on: M14 melanoma
OVCAR-5 ovarian = tested on: OVCAR-5 ovarian
NCI-H460 lung = tested on: NCI-H460 lung
CAKI-1 renal = tested on: CAKI-1 renal
SN12C renal = tested on: SN12C renal
HS 578T breast = tested on: HS 578T breast
RXF 393 renal = tested on: RXF 393 renal
OVCAR-3 ovarian = tested on: OVCAR-3 ovarian
UO-31 renal = tested on: UO-31 renal
OVCAR-8 ovarian = tested on: OVCAR-8 ovarian
COLO 205 colon = tested on: COLO 205 colon
K-562 leukemia = tested on: K-562 leukemia
SNB-19 CNS = tested on: SNB-19 CNS
UACC-62 melanoma = tested on: UACC-62 melanoma
LOX IMVI melanoma = tested on: LOX IMVI melanoma
KM12 colon = tested on: KM12 colon
HCC-2998 colon = tested on: HCC-2998 colon
786-0 renal = tested on: 786-0 renal
PC-3 prostate = tested on: PC-3 prostate
BT-549 breast = tested on: BT-549 breast
TK-10 renal = tested on: TK-10 renal
HOP-62 NSCLC = tested on: HOP-62 NSCLC
HOP-92 NSCLC = tested on: HOP-92 NSCLC
SK-OV-3 ovarian = tested on: SK-OV-3 ovarian
HT29 colon = tested on: HT29 colon
SNB-75 CNS = tested on: SNB-75 CNS
SW-620 colon = tested on: SW-620 colon
SR leukemia = tested on: SR leukemia
MDA-MB-231 breast = tested on: MDA-MB-231 breast
SF-539 CNS = tested on: SF-539 CNS
OVCAR-4 ovarian = tested on: OVCAR-4 ovarian
NCI-H226 lung = tested on: NCI-H226 lung
NCI/ADR-RES ovarian = tested on: NCI/ADR-RES ovarian
MDA-MB-435 = tested on: MDA-MB-435
HCT-116 colon = tested on: HCT-116 colon
ACHN renal = tested on: ACHN renal
HCT-15 colon = tested on: HCT-15 colon

CCc1ccc2cc3c(ccc4ccccc43)c3c2c1CC3
> 100 µM: TGI (MCF7 breast) | TGI (T-47D breast) | TGI (SK-MEL-2 melanoma) | TGI (SK-MEL-5 melanoma) | TGI (IGROV1 ovarian) | TGI (SK-MEL-28 melanoma) | TGI (NCI-H23 lung) | TGI (NCI-H522 lung) | TGI (MOLT-4 leukemia) | TGI (CCRF-CEM leukemia) | TGI (A549 NSCLC) | TGI (MALME-3M melanoma) | TGI (DU-145 prostate) | TGI (A498 renal) | TGI (RPMI-8226 leukemia) | TGI (SF-268 CNS) | TGI (M14 melanoma) | TGI (OVCAR-5 ovarian) | TGI (NCI-H460 lung) | TGI (CAKI-1 renal) | TGI (SN12C renal) | TGI (HS 578T breast) | TGI (RXF 393 renal) | TGI (OVCAR-3 ovarian) | TGI (UO-31 renal) | TGI (OVCAR-8 ovarian) | TGI (COLO 205 colon) | TGI (K-562 leukemia) | TGI (SNB-19 CNS) | TGI (UACC-62 melanoma) | TGI (LOX IMVI melanoma) | TGI (KM12 colon) | TGI (HCC-2998 colon) | TGI (786-0 renal) | TGI (PC-3 prostate) | TGI (BT-549 breast) | TGI (TK-10 renal) | TGI (HOP-62 NSCLC) | TGI (HOP-92 NSCLC) | TGI (SK-OV-3 ovarian) | TGI (HT29 colon) | TGI (SNB-75 CNS) | TGI (SW-620 colon) | TGI (SR leukemia) | TGI (MDA-MB-231 breast) | TGI (SF-539 CNS) | TGI (OVCAR-4 ovarian) | TGI (NCI-H226 lung) | TGI (NCI/ADR-RES ovarian) | TGI (MDA-MB-435) | TGI (HCT-116 colon) | TGI (ACHN renal) | TGI (HCT-15 colon)
inactive: GI50 (MCF7 breast) 0.6 µM | GI50 (T-47D breast) > 100 µM | GI50 (SK-MEL-2 melanoma) > 100 µM | GI50 (SK-MEL-5 melanoma) > 100 µM | GI50 (IGROV1 ovarian) > 100 µM | GI50 (SK-MEL-28 melanoma) > 100 µM | GI50 (NCI-H23 lung) > 100 µM | GI50 (NCI-H522 lung) > 100 µM | GI50 (MOLT-4 leukemia) > 100 µM | GI50 (CCRF-CEM leukemia) > 100 µM | GI50 (A549 NSCLC) > 100 µM | GI50 (MALME-3M melanoma) > 100 µM | GI50 (DU-145 prostate) > 100 µM | GI50 (A498 renal) > 100 µM | GI50 (RPMI-8226 leukemia) > 100 µM | GI50 (SF-268 CNS) > 100 µM | GI50 (M14 melanoma) > 100 µM | GI50 (OVCAR-5 ovarian) > 100 µM | GI50 (NCI-H460 lung) > 100 µM | GI50 (CAKI-1 renal) > 100 µM | GI50 (SN12C renal) > 100 µM | GI50 (HS 578T breast) > 100 µM | GI50 (RXF 393 renal) > 100 µM | GI50 (OVCAR-3 ovarian) > 100 µM | GI50 (UO-31 renal) > 100 µM | GI50 (OVCAR-8 ovarian) > 100 µM | GI50 (COLO 205 colon) > 100 µM | GI50 (K-562 leukemia) > 100 µM | GI50 (SNB-19 CNS) > 100 µM | GI50 (UACC-62 melanoma) > 100 µM | GI50 (LOX IMVI melanoma) > 100 µM | GI50 (KM12 colon) > 100 µM | GI50 (HCC-2998 colon) > 100 µM | GI50 (786-0 renal) > 100 µM | GI50 (PC-3 prostate) > 100 µM | GI50 (BT-549 breast) > 100 µM | GI50 (TK-10 renal) > 100 µM | GI50 (HOP-62 NSCLC) > 100 µM | GI50 (HOP-92 NSCLC) > 100 µM | GI50 (SK-OV-3 ovarian) > 100 µM | GI50 (HT29 colon) > 100 µM | GI50 (SNB-75 CNS) > 100 µM | GI50 (SW-620 colon) > 100 µM | GI50 (SR leukemia) > 100 µM | GI50 (MDA-MB-231 breast) > 100 µM | GI50 (SF-539 CNS) > 100 µM | GI50 (OVCAR-4 ovarian) > 100 µM | GI50 (NCI-H226 lung) > 100 µM | GI50 (NCI/ADR-RES ovarian) > 100 µM | GI50 (MDA-MB-435) > 100 µM | GI50 (HCT-116 colon) > 100 µM | GI50 (ACHN renal) > 100 µM | GI50 (HCT-15 colon) > 100 µM
